From patent EP0511845B1, “Pesticidal 1-aryl-5-(substituted alkylideneimino)-pyrazoles” (AVENTIS CROPSCIENCE S.A., priority 1991, dated 1992)

Key:
Assay type in all cases: in vivo
Heliothis virescens [1] = assay: Tobacco budworm on sorghum - systemic evaluation (soil drench); details: systemic via root uptake, 10.0 ppm soil concentration
Description: (§1) For southern root-knot nematod and systemic tests for southern armyworm, cotton aphid, tobacco budworm and greenbug, a stock solution or suspension was prepared by adding 15 mg of the test compound to 250 mg of dimethylformamide, 1250 mg of acetone and 3 mg of the emulsifier blend referenced above. Water was then added to provide a test compound concentration of 150 ppm. When necessary, sonication was provided to insure complete dispersion. Cotton aphid and tobacco budworm (on cotton) and greenbug and tobacco budworm (on sorghum) - systemic evaluation: A 7.0 ml aliquot of the 150 ppm nematode test solution was applied to deliver the equivalent of 10.0 ppm soil concentration dose as a drench to 6 cm pots containing cotton and sorghum plants. The cotton plants were previously infested with cotton aphids about two days before treatment and greenbug one day before treatment. After holding the plants about three days, the plants were rated for aphid activity. Again at six days, the plants were rated for aphid activity and the cotton aphids and greenbugs were counted and mortality was assessed. Portions of the cotton and sorghum foliage were excised, placed in separate plastic containers, and infested with second instar larvae of tobacco budworm. The potted plants were dipped in sulfotepp to kill the remaining aphids and returned to the greenhouse for regrowth. Thirteen days after treatment, the remaining foliage was excised and fed to tobacco budworms. Mortality was assessed six days after infestation.

Aphis gossypii = assay: Cotton aphid on cotton - systemic evaluation (soil drench); details: systemic via root uptake, soil drench at soil concentrations of the protocols (10.0 or 20 ppm)
Description: as §1, with “infestation. Cotton aphid and southern armyworm (on cotton) and greenbug and southern armyworm (on sorghum) - systemic evaluation: A stock solution or suspension was prepared to deliver 5 ml of a 20 ppm soil concentration dose (and subsequent dilutions) as a drench to 6 cm pots containing cotton and sorghum plants. The cotton plants were previously infested with cotton aphids about two days before treatment and greenbug one day before treatment. After holding the plants about three days, the plants were rated for aphid activity. Again at six days, the plants were rated for aphid activity and the cotton aphids and greenbugs were counted and mortality was assessed. Portions of the cotton and sorghum foliage were excised, placed in separate plastic containers, and infested with second instar larvae of southern armyworms. The potted plants were dipped in sulfotepp to kill the remaining aphids and returned to the greenhouse for regrowth. Thirteen days after treatment the remaining foliage was excised and fed to southern armyworm. Mortality was assessed six days after infestation.” for “infestation.”

Schizaphis graminum = assay: Greenbug on sorghum - systemic evaluation (soil drench); details: systemic via root uptake, soil drench at soil concentrations of the protocols (10.0 or 20 ppm)
Description: as §1, with “infestation. Cotton aphid and southern armyworm (on cotton) and greenbug and southern armyworm (on sorghum) - systemic evaluation: A stock solution or suspension was prepared to deliver 5 ml of a 20 ppm soil concentration dose (and subsequent dilutions) as a drench to 6 cm pots containing cotton and sorghum plants. The cotton plants were previously infested with cotton aphids about two days before treatment and greenbug one day before treatment. After holding the plants about three days, the plants were rated for aphid activity. Again at six days, the plants were rated for aphid activity and the cotton aphids and greenbugs were counted and mortality was assessed. Portions of the cotton and sorghum foliage were excised, placed in separate plastic containers, and infested with second instar larvae of southern armyworms. The potted plants were dipped in sulfotepp to kill the remaining aphids and returned to the greenhouse for regrowth. Thirteen days after treatment the remaining foliage was excised and fed to southern armyworm. Mortality was assessed six days after infestation.” for “infestation.”

Heliothis virescens [2] = assay: Tobacco budworm - contact evaluation (topical application); details: topical or contact tests; application dose of 63 µg/g body weight
Description: For tobacco budworm contact tests, a stock solution was prepared by dissolving the compound in acetone and then further diluted to provide the required serial dilution concentrations.
Tobacco budworm - contact evaluation: The following topical application method provides an assessment of contact toxicity of a compound to tobacco budworm larvae The test compound solution at sequential two-fold dilution concentrations from 10 down to 0.16 µg/µl was applied by a microinjector in repli cated 1 µl portions to the dorsum of approximately 20 mg tobacco budworm larvae. This is equivalent to applied doses of 500 down to 8 µg/g body weight. An acetone treated control, without any test compounds, as also applied. A treated control with a commercial technical compound, cypermethrin or thiodicarb, also in acetone was used as a standard. The treated larvae were placed, individually, in separate plastic petri dishes containing an untreated cotton leaf and a moist dental wick. The treated larvae were maintained at about 27°C and 50% relative humidity. The percent mortality was rated 1 and 4 days after treatment.

Spodoptera eridania [3] = assay: Southern armyworm on sorghum - systemic evaluation (soil drench); details: systemic via root uptake; for control of southern armyworm at thirteen days (sorghum): on sorghum; for control of southern armyworm after six days on sorghum: 20 ppm soil concentration dose (and subsequent dilutions)
Description: (§2) Cotton aphid and southern armyworm (on cotton) and greenbug and southern armyworm (on sorghum) - systemic evaluation: A stock solution or suspension was prepared to deliver 5 ml of a 20 ppm soil concentration dose (and subsequent dilutions) as a drench to 6 cm pots containing cotton and sorghum plants. The cotton plants were previously infested with cotton aphids about two days before treatment and greenbug one day before treatment. After holding the plants about three days, the plants were rated for aphid activity. Again at six days, the plants were rated for aphid activity and the cotton aphids and greenbugs were counted and mortality was assessed. Portions of the cotton and sorghum foliage were excised, placed in separate plastic containers, and infested with second instar larvae of southern armyworms. The potted plants were dipped in sulfotepp to kill the remaining aphids and returned to the greenhouse for regrowth. Thirteen days after treatment the remaining foliage was excised and fed to southern armyworm. Mortality was assessed six days after infestation.

Spodoptera eridania [4] = assay: Southern armyworm on cotton - systemic evaluation (soil drench); details: systemic via root uptake; for control of southern armyworm at six days on cotton: 20 ppm soil concentration dose (and subsequent dilutions); for control of southern armyworm at thirteen days: plant not repeated, follows the cotton clause
Description: as §2

N#Cc1nn(-c2c(Cl)cc(C(F)(F)F)cc2Cl)c(N=Cc2cc[n+]([O-])cc2)c1SC(F)(F)F [compound 18, 1-(2,6-dichloro-4-trifluoromethylphenyl)-3-cyano-4-trifluoromethylsulfenyl-5-[(4-pyridyl-N-oxide)methylideneimino]pyrazole]
control of tobacco budworm after six days on sorghum (Heliothis virescens [1]): 100%
control of cotton aphid after six days on cotton (Aphis gossypii): 30-100%
control of greenbug after six days on sorghum (Schizaphis graminum): 30-100%

N#Cc1cccc(C=Nc2c(SC(F)(F)F)c(C#N)nn2-c2c(Cl)cc(C(F)(F)F)cc2Cl)c1 [compound 116]
control of tobacco budworm (TBW) (Heliothis virescens [2]): 50-100%

Cc1cc(C=Nc2c(S(=O)(=O)C(F)(F)F)c(C#N)nn2-c2c(Cl)cc(C(F)(F)F)cc2Cl)ccc1O [compound 66]
control of southern armyworm at thirteen days (sorghum) (Spodoptera eridania [3]): 70-100%

N#Cc1nn(-c2c(Cl)cc(C(F)(F)F)cc2Cl)c(N=Cc2ccco2)c1SC(F)(F)F [compound 20]
control of tobacco budworm after six days on sorghum (Heliothis virescens [1]): 100%
control of greenbug after six days on sorghum (Schizaphis graminum): 30-100%

CCN(CC)c1ccc(C=Nc2c(SC(F)(F)F)c(C#N)nn2-c2c(Cl)cc(C(F)(F)F)cc2Cl)c(O)c1 [compound 117]
control of southern armyworm at thirteen days (sorghum) (Spodoptera eridania [3]): 70-100%

CSc1c(C#N)nn(-c2c(Cl)cc(C(F)(F)F)cc2Cl)c1N=Cc1ccc(O)cc1 [compound 111]
control of cotton aphid after six days on cotton (Aphis gossypii): 30-100%
control of greenbug after six days on sorghum (Schizaphis graminum): 30-100%

N#Cc1nn(-c2c(Cl)cc(C(F)(F)F)cc2Cl)c(N=Cc2cc(O)c(O)c(Br)c2)c1SC(F)(F)F [compound 93]
control of greenbug after six days on sorghum (Schizaphis graminum): 30-100%

COc1cc(C=Nc2c(SC(F)(F)F)c(C#N)nn2-c2c(Cl)cc(C(F)(F)F)cc2Cl)cc(Br)c1O [compound 42]
control of tobacco budworm (TBW) (Heliothis virescens [2]): 50-100%

COc1ccccc1C=Nc1c(SC(F)(F)F)c(C#N)nn1-c1c(Cl)cc(C(F)(F)F)cc1Cl [compound 113]
control of southern armyworm at six days on cotton (Spodoptera eridania [4]): 30-100%

COc1cc(C=Nc2c(SC(F)(F)F)c(C#N)nn2-c2ncc(C(F)(F)F)cc2Cl)ccc1O [compound 87]
control of greenbug after six days on sorghum (Schizaphis graminum): 30-100%

CC(C)(C)c1cc(C=Nc2c(SC(F)(F)F)c(C#N)nn2-c2c(Cl)cc(C(F)(F)F)cc2Cl)cc(C(C)(C)C)c1O [compound 64]
control of southern armyworm at thirteen days (Spodoptera eridania [4]): 30-100%

CCCCCCCC(=O)Oc1ccc(C=Nc2c(SC(F)(F)F)c(C#N)nn2-c2c(Cl)cc(C(F)(F)F)cc2Cl)cc1OC [compound 121]
control of southern armyworm after six days on sorghum (Spodoptera eridania [3]): 30-100%

N#Cc1nn(-c2c(Cl)cc(C(F)(F)F)cc2Cl)c(N=Cc2ccc(O)cc2O)c1SC(F)(F)F [compound 17]
control of tobacco budworm after six days on sorghum (Heliothis virescens [1]): 100%
control of cotton aphid after six days on cotton (Aphis gossypii): 30-100%
control of greenbug after six days on sorghum (Schizaphis graminum): 30-100%

COc1cc(O)c(C=Nc2c(S(=O)(=O)C(F)(F)F)c(C#N)nn2-c2c(Cl)cc(C(F)(F)F)cc2Cl)c(OC)c1 [compound 72]
control of southern armyworm after six days on sorghum (Spodoptera eridania [3]): 30-100%

COc1cccc(C=Nc2c(SC(F)(F)F)c(C#N)nn2-c2c(Cl)cc(C(F)(F)F)cc2Cl)c1O [compound 50]
control of tobacco budworm (TBW) (Heliothis virescens [2]): 50-100%

CCOc1cc(C=Nc2c(S(=O)(=O)C(F)(F)F)c(C#N)nn2-c2c(Cl)cc(C(F)(F)F)cc2Cl)ccc1O [compound 61]
control of tobacco budworm (TBW) (Heliothis virescens [2]): 50-100%

Cc1cc(C=Nc2c(SC(F)(F)Cl)c(C#N)nn2-c2c(Cl)cc(C(F)(F)F)cc2Cl)cc(C)c1O [compound 80]
control of tobacco budworm (TBW) (Heliothis virescens [2]): 50-100%

COc1cc(C=Nc2c(SC(F)(F)F)c(C#N)nn2-c2c(Cl)cc(C(F)(F)F)cc2Cl)cc(OC)c1O [compound 13, 1-(2,6-dichloro-4-trifluoromethylphenyl)-3-cyano-4-trifluoromethylsulfenyl-5-[(3,5-dimethoxy-4-hydroxyphenyl)methylideneimino]pyrazole]
control of cotton aphid after six days on cotton (Aphis gossypii): 30-100%
control of tobacco budworm (TBW) (Heliothis virescens [2]): 50-100%

COc1cc(C=Nc2c(SC(F)(F)F)c(C#N)nn2-c2c(Cl)cc(C(F)(F)F)cc2Cl)ccc1OCc1ccccc1 [compound 120]
control of southern armyworm at six days on cotton (Spodoptera eridania [4]): 30-100%

COc1ccc(C=Nc2c(S(=O)(=O)C(F)(F)F)c(C#N)nn2-c2c(Cl)cc(C(F)(F)F)cc2Cl)cc1O [compound 65]
control of southern armyworm at thirteen days (Spodoptera eridania [4]): 30-100%
control of southern armyworm at thirteen days (sorghum) (Spodoptera eridania [3]): 70-100%

COc1cc(C=Nc2c(SC(F)(F)F)c(C#N)nn2-c2c(Cl)cc(C(F)(F)F)cc2Cl)cc([N+](=O)[O-])c1O [compound 74]
control of greenbug after six days on sorghum (Schizaphis graminum): 30-100%

N#Cc1nn(-c2c(Cl)cc(C(F)(F)F)cc2Cl)c(N=Cc2cc[n+]([O-])cc2)c1S(=O)(=O)C(F)(F)F [compound 68]
control of southern armyworm at thirteen days (Spodoptera eridania [4]): 30-100%

N#Cc1nn(-c2c(Cl)cc(C(F)(F)F)cc2Cl)c(N=Cc2ccc(O)cc2)c1SC(F)(F)F [compound 4, 1-(2,6-dichloro-4-trifluoromethylphenyl]-3-cyano-4-trifluoromethylsulfenyl-5-[(4-hydroxyphenyl]methylideneimino]pyrazole]
control of greenbug after six days on sorghum (Schizaphis graminum): 30-100%

COc1ccc(C=Nc2c(SC(F)(F)Cl)c(C#N)nn2-c2c(Cl)cc(C(F)(F)F)cc2Cl)cc1O [compound 81]
control of tobacco budworm (TBW) (Heliothis virescens [2]): 50-100%

COc1cc(C=Nc2c(SC(F)(F)F)c(C#N)nn2-c2c(Cl)cc(C(F)(F)F)cc2Cl)cc(O)c1OC [compound 59]
control of tobacco budworm (TBW) (Heliothis virescens [2]): 50-100%

N#Cc1nn(-c2c(Cl)cc(C(F)(F)F)cc2Cl)c(N=Cc2ccc(O)c(Br)c2)c1SC(F)(F)F [compound 100]
control of southern armyworm after six days on sorghum (Spodoptera eridania [3]): 30-100%

COc1cc(C=Nc2c(SC(F)(F)F)c(C#N)nn2-c2c(Cl)cc(C(F)(F)F)cc2Cl)ccc1OC(C)=O [compound 69]
control of southern armyworm at six days on cotton (Spodoptera eridania [4]): 30-100%
control of southern armyworm after six days on sorghum (Spodoptera eridania [3]): 30-100%
control of tobacco budworm (TBW) (Heliothis virescens [2]): 50-100%

N#Cc1nn(-c2c(Cl)cc(C(F)(F)F)cc2Cl)c(N=Cc2ncc[nH]2)c1SC(F)(F)F [compound 115]
control of southern armyworm after six days on sorghum (Spodoptera eridania [3]): 30-100%

COc1cc(C=Nc2c(SC)c(C#N)nn2-c2c(Cl)cc(C(F)(F)F)cc2Cl)ccc1O [compound 110]
control of southern armyworm at thirteen days (Spodoptera eridania [4]): 30-100%
control of southern armyworm at thirteen days (sorghum) (Spodoptera eridania [3]): 70-100%
control of cotton aphid after six days on cotton (Aphis gossypii): 30-100%
control of greenbug after six days on sorghum (Schizaphis graminum): 30-100%

COc1ccc(C=Nc2c(SC(F)(F)F)c(C#N)nn2-c2c(Cl)cc(C(F)(F)F)cc2Cl)cc1 [compound 21]
control of greenbug after six days on sorghum (Schizaphis graminum): 30-100%

N#Cc1nn(-c2c(Cl)cc(C(F)(F)F)cc2Cl)c(N=Cc2cc(C(F)(F)F)cc(C(F)(F)F)c2)c1SC(F)(F)F [compound 112]
control of cotton aphid after six days on cotton (Aphis gossypii): 30-100%
control of greenbug after six days on sorghum (Schizaphis graminum): 30-100%
